PubChem BioAssay (NCI)
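A five-concentration, 48-hour dose response in 96-well plates underlies each endpoint, interpolated linearly between surrounding concentrations. GI50 = concentration required for 50% inhibition of growth. At the TGI there is no net growth.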

Key:
Test in all cases: growth of human tumour cells (NCI), 48 h
786-0 renal = test system: 786-0 renal
A498 renal = test system: A498 renal
A549 NSCLC = test system: A549 NSCLC
ACHN renal = test system: ACHN renal
BT-549 breast = test system: BT-549 breast
CAKI-1 renal = test system: CAKI-1 renal
CCRF-CEM leukemia = test system: CCRF-CEM leukemia
COLO 205 colon = test system: COLO 205 colon
DU-145 prostate = test system: DU-145 prostate
EKVX NSCLC = test system: EKVX NSCLC
HCC-2998 colon = test system: HCC-2998 colon
HCT-116 colon = test system: HCT-116 colon
HCT-15 colon = test system: HCT-15 colon
HL-60(TB) leukemia = test system: HL-60(TB) leukemia
HOP-62 NSCLC = test system: HOP-62 NSCLC
HOP-92 NSCLC = test system: HOP-92 NSCLC
HS 578T breast = test system: HS 578T breast
HT29 colon = test system: HT29 colon
IGROV1 ovarian = test system: IGROV1 ovarian
K-562 leukemia = test system: K-562 leukemia
KM12 colon = test system: KM12 colon
LOX IMVI melanoma = test system: LOX IMVI melanoma
M14 melanoma = test system: M14 melanoma
MALME-3M melanoma = test system: MALME-3M melanoma
MCF7 breast = test system: MCF7 breast
MDA-MB-231 breast = test system: MDA-MB-231 breast
MDA-MB-435 = test system: MDA-MB-435
MOLT-4 leukemia = test system: MOLT-4 leukemia
NCI-H226 lung = test system: NCI-H226 lung
NCI-H460 lung = test system: NCI-H460 lung
NCI-H522 lung = test system: NCI-H522 lung
NCI/ADR-RES ovarian = test system: NCI/ADR-RES ovarian
OVCAR-3 ovarian = test system: OVCAR-3 ovarian
OVCAR-4 ovarian = test system: OVCAR-4 ovarian
OVCAR-5 ovarian = test system: OVCAR-5 ovarian
OVCAR-8 ovarian = test system: OVCAR-8 ovarian
PC-3 prostate = test system: PC-3 prostate
RPMI-8226 leukemia = test system: RPMI-8226 leukemia
RXF 393 renal = test system: RXF 393 renal
SF-268 CNS = test system: SF-268 CNS
SF-295 CNS = test system: SF-295 CNS
SF-539 CNS = test system: SF-539 CNS
SK-MEL-2 melanoma = test system: SK-MEL-2 melanoma
SK-MEL-28 melanoma = test system: SK-MEL-28 melanoma
SK-MEL-5 melanoma = test system: SK-MEL-5 melanoma
SK-OV-3 ovarian = test system: SK-OV-3 ovarian
SN12C renal = test system: SN12C renal
SNB-19 CNS = test system: SNB-19 CNS
SNB-75 CNS = test system: SNB-75 CNS
SR leukemia = test system: SR leukemia
SW-620 colon = test system: SW-620 colon
T-47D breast = test system: T-47D breast
TK-10 renal = test system: TK-10 renal
U251 CNS = test system: U251 CNS
UACC-257 melanoma = test system: UACC-257 melanoma
UACC-62 melanoma = test system: UACC-62 melanoma
UO-31 renal = test system: UO-31 renal

## O=C(NO)c1ccc(CN(c2cnccn2)c2cnccn2)cc1
786-0 renal
  GI50: 15.7 µM
  TGI: 35 µM
A498 renal
  GI50: 10.3 µM
  TGI: 28.3 µM
A549 NSCLC
  GI50: 13.9 µM
  TGI: 36.5 µM
ACHN renal
  GI50: 12.9 µM
  TGI: 27.4 µM
BT-549 breast
  GI50: 13.8 µM
  TGI: 29.9 µM
CAKI-1 renal
  GI50: 12.7 µM
  TGI: 40.1 µM
CCRF-CEM leukemia
  GI50: 11.2 µM
  TGI: > 100 µM
COLO 205 colon
  GI50: 2960 nM
  TGI: 8.17 µM
DU-145 prostate
  GI50: 9.26 µM
  TGI: > 100 µM
EKVX NSCLC
  GI50: 15.9 µM
  TGI: 36.7 µM
HCC-2998 colon
  GI50: 13.2 µM
  TGI: 26.8 µM
HCT-116 colon
  GI50: 6.04 µM
  TGI: 28.9 µM
HCT-15 colon
  GI50: 18.5 µM
  TGI: 46.8 µM
HL-60(TB) leukemia
  GI50: 26.6 µM
  TGI: 82.7 µM
HOP-62 NSCLC
  GI50: 15.4 µM
  TGI: 34.8 µM
HOP-92 NSCLC
  GI50: 16.4 µM
  TGI: 35.1 µM
HS 578T breast
  GI50: 23.3 µM
  TGI: 96.8 µM
HT29 colon
  GI50: 15.4 µM
  TGI: 38 µM
IGROV1 ovarian
  GI50: 15.6 µM
  TGI: 35.2 µM
K-562 leukemia
  GI50: 13 µM
  TGI: > 100 µM
KM12 colon
  GI50: 10.3 µM
  TGI: 24.2 µM
LOX IMVI melanoma
  GI50: 3.69 µM
  TGI: 18.1 µM
M14 melanoma
  GI50: 11.1 µM
  TGI: 28.3 µM
MALME-3M melanoma
  GI50: 7.9 µM
  TGI: 23.8 µM
MCF7 breast
  GI50: 12.1 µM
  TGI: > 100 µM
MDA-MB-231 breast
  GI50: 22.3 µM
  TGI: 63.4 µM
MDA-MB-435
  GI50: 12.2 µM
  TGI: 27.7 µM
MOLT-4 leukemia
  GI50: 17.7 µM
  TGI: > 100 µM
NCI-H226 lung
  GI50: 20 µM
  TGI: 65.7 µM
NCI-H460 lung
  GI50: 14.8 µM
  TGI: 43.6 µM
NCI-H522 lung
  GI50: 4.19 µM
  TGI: 18 µM
NCI/ADR-RES ovarian
  GI50: 10.3 µM
  TGI: 37.4 µM
OVCAR-3 ovarian
  GI50: 11.7 µM
  TGI: 30 µM
OVCAR-4 ovarian
  GI50: 16.1 µM
  TGI: 97.7 µM
OVCAR-5 ovarian
  GI50: 14.7 µM
  TGI: 52.6 µM
OVCAR-8 ovarian
  GI50: 3.75 µM
  TGI: 17.2 µM
PC-3 prostate
  GI50: 11.7 µM
  TGI: 31.4 µM
RPMI-8226 leukemia
  GI50: 8.68 µM
  TGI: > 100 µM
RXF 393 renal
  GI50: 11.5 µM
  TGI: 25.1 µM
SF-268 CNS
  GI50: 16.3 µM
  TGI: 32.7 µM
SF-295 CNS
  GI50: 14.8 µM
  TGI: 33.4 µM
SF-539 CNS
  GI50: 14.1 µM
  TGI: 34.6 µM
SK-MEL-2 melanoma
  GI50: 12.2 µM
  TGI: 27 µM
SK-MEL-28 melanoma
  GI50: 11 µM
  TGI: 36.4 µM
SK-MEL-5 melanoma
  GI50: 13.1 µM
  TGI: 26.1 µM
SK-OV-3 ovarian
  GI50: 14.6 µM
  TGI: 29.5 µM
SN12C renal
  GI50: 18.3 µM
  TGI: 42.5 µM
SNB-19 CNS
  GI50: 17.7 µM
  TGI: 72.5 µM
SNB-75 CNS
  GI50: 14.6 µM
  TGI: 38.7 µM
SR leukemia
  GI50: 6.22 µM
  TGI: > 100 µM
SW-620 colon
  GI50: 12.5 µM
  TGI: 33.7 µM
T-47D breast
  GI50: 9.55 µM
  TGI: 38.1 µM
TK-10 renal
  GI50: 11.3 µM
  TGI: 42 µM
U251 CNS
  GI50: 7.74 µM
  TGI: 21.4 µM
UACC-257 melanoma
  GI50: 5.77 µM
  TGI: 22.2 µM
UACC-62 melanoma
  GI50: 6.71 µM
  TGI: 28.5 µM
UO-31 renal
  GI50: 12.9 µM
  TGI: 26.4 µM
